One test addresses T1, human A2A receptors (Homo sapiens, UniProt P29274).
T1 construct: expressed in transfected cells; host or cells: HEK293
Kind of test: Functional human A2A receptor activity, recombinant HEK293 cells, cAMP (HTRF). Type of test: cell-based. The following applies: read-out: A2A (Category). The procedure: (§1) The functional activities of human A2A and A2B receptors were determined by quantification of cAMP, being the second messenger for adenosine receptors.
(§2) After a 15 min incubation, HTRF reagents (cAMP dynamic 2, Cis Bio) were added and the cellular cAMP levels were determined using the ENVISION (Perkin Elmer) plate reader.
A general note: Time-resolved FRET reads energy transfer from a long-lived donor to a nearby acceptor.

For the next test, the target named is T2, human A2B receptors (Homo sapiens, UniProt P29275).
T2 construct: expressed in transfected cells; host or cells: HEK293
T2 sequence (P29275 1-332): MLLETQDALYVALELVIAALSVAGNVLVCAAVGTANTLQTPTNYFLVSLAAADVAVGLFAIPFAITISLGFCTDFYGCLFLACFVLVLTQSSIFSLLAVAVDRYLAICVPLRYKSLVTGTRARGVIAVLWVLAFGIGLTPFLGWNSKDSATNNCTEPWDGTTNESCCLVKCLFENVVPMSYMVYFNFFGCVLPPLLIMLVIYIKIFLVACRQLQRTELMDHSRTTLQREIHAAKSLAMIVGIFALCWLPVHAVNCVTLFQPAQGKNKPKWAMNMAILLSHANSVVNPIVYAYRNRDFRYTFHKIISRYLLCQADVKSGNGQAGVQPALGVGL
Briefly: Functional human A2B receptor activity, recombinant HEK293 cells, cAMP (HTRF). The following applies: read-out: A2B (Category). It counts as cell-based. How it is done: as §1, §2

Molecules are shown by their SMILES.

T1 sequence (P29274 whole entry): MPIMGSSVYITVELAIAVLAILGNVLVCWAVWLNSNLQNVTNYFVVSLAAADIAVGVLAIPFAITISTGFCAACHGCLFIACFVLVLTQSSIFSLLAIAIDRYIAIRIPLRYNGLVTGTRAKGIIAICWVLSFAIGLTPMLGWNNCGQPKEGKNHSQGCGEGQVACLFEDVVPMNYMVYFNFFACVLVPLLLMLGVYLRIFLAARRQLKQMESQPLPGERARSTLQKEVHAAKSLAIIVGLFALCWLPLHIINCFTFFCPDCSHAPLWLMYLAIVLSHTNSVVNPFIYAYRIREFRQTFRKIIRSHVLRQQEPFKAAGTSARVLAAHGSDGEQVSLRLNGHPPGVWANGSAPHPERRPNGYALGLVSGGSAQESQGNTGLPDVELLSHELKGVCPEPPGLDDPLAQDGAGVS

`CC1(O)CCN(C(=O)c2cc3c(cn2)c(-c2coc4ccccc24)nn3CS(C)(=O)=O)CC1` [Compound 32, (3-Benzofuran-3-yl-1-methanesulfonylmethyl-1H-pyrazolo[4,3-c]pyridin-6-yl)-(4-hydroxy-4-methyl-piperidin-1-yl)-methanone]: the IC50 at human A2A receptors was below 0.1 µM; at human A2B receptors it was below 1 µM.

With `CS(=O)(=O)Cn1nc(-c2coc3ccccc23)c2cnc(C(=O)N3CCC(F)(F)CC3)cc21` [Compound 33, (3-Benzofuran-3-yl-1-methanesulfonylmethyl-1H-pyrazolo[4,3-c]pyridin-6-yl)-(4,4-difluoro-piperidin-1-yl)-methanone], the IC50 on human A2A receptors was below 0.1 µM; at human A2B receptors it was below 1 µM.

`COCC1CCCN1C(=O)c1cc2c(cn1)c(-c1coc3ccccc13)nn2CS(C)(=O)=O` (centres unmarked) [Compound 34, (3-Benzofuran-3-yl-1-methanesulfonylmethyl-1H-pyrazolo[4,3-c]pyridin-6-yl)-(2-methoxymethyl-pyrrolidin-1-yl)-methanone]: the IC50 on human A2A receptors is below 0.1 µM; at human A2B receptors, below 1 µM.

Turning to `CC1(C)CC(O)CCN1C(=O)c1cc2c(cn1)c(-c1coc3ccccc13)nn2CS(C)(=O)=O` (centres unmarked) [Compound 35, (3-Benzofuran-3-yl-1-methanesulfonylmethyl-1H-pyrazolo[4,3-c]pyridin-6-yl)-(4-hydroxy-2,2 dimethyl-piperidin-1-yl)-methanone], the IC50 on human A2A receptors was below 0.1 µM; at human A2B receptors it was below 1 µM.

Consider `CS(=O)(=O)Cn1nc(-c2coc3ccccc23)c2cnc(C(=O)N3CCC(O)CC3)cc21` [Compound 36, (3-Benzofuran-3-yl-1-methanesulfonylmethyl-1H-pyrazolo[4,3-c]pyridin-6-yl)-(4-hydroxy-piperidin-1-yl)-methanone], for which the IC50 on human A2A receptors and on human A2B receptors was below 0.1 µM throughout.

With `CS(=O)(=O)Cn1nc(-c2coc3ccccc23)c2cnc(C(=O)N3[C@@H]4CC[C@H]3C[C@@H](O)C4)cc21` [Compound 37, [3-(benzofuran-3-yl)-1-(methylsulfonylmethyl)pyrazolo[4,3-c]pyridin-6-yl]-(3-endo-hydroxy-8-azabicyclo[3.2.1]octan-8-yl)methanone], the IC50 at human A2A receptors and at human A2B receptors was below 0.1 µM throughout.

With `CS(=O)(=O)Cn1nc(-c2coc3ccccc23)c2cnc(C(=O)N3CCCC(O)C3)cc21` (centres unmarked) [Compound 38, (3-Benzofuran-3-yl-1-methanesulfonylmethyl-1H-pyrazolo[4,3-c]pyridin-6-yl)-(3-hydroxy-piperidin-1-yl)-methanone], the IC50 on human A2A receptors is below 0.1 µM; at human A2B receptors, below 1 µM.

For the compound `CS(=O)(=O)Cn1nc(-c2coc3ccccc23)c2cnc(C(=O)N3CCCC(F)(F)C3)cc21` [Compound 39, (3-Benzofuran-3-yl-1-methanesulfonylmethyl-1H-pyrazolo[4,3-c]pyridin-6-yl)-(3,3-difluoro-piperidin-1-yl)-methanone], the IC50 on human A2A receptors and on human A2B receptors was below 0.1 µM in each case.

For the compound `CS(=O)(=O)Cn1nc(-c2coc3ccccc23)c2cnc(C(=O)N3CCCC(O)CC3)cc21` (centres unmarked) [Compound 40, (3-Benzofuran-3-yl-1-methanesulfonylmethyl-1H-pyrazolo[4,3-c]pyridin-6-yl)-(4-hydroxyazepan-1-yl)-methanone], the IC50 at human A2A receptors and on human A2B receptors was below 0.1 µM each time.

As for `Cn1nc(-c2cnc3ccc(F)cn23)c2cnc(C(=O)N3CCCCCC3)cc21` [Compound 41, Azepan-1-yl-[3-(6-fluoro-imidazo[1,2-a]pyridin-3-yl)-1-methyl-1H-pyrazolo[4,3-c]pyridin-6-yl]-methanone], the IC50 at human A2A receptors is below 0.1 µM; at human A2B receptors, below 1 µM.

In the case of `O=C(c1cc2c(cn1)c(-c1cnc3ccc(F)cn13)nn2CC(F)(F)F)N1CCCCCC1` [Compound 44, Azepan-1-yl-[3-(6-fluoro-imidazo[1,2-a]pyridin-3-yl)-1-(2,2,2-trifluoro-ethyl)-1H-pyrazolo[4,3-c]pyridin-6-yl]-methanone], the IC50 on human A2A receptors and at human A2B receptors was below 0.1 µM each time.

For the compound `NC(=O)c1ccc2ncc(-c3nn(CC(F)(F)F)c4cc(C(=O)N5CCCCCC5)ncc34)n2c1` [Compound 46, 3-[6-(Azepane-1-carbonyl)-1-(2,2,2-trifluoro-ethyl)-1H-pyrazolo[4,3-c]-pyridin-3-yl]-imidazo[1,2-a]pyridine-6-carboxylic acid amide], the IC50 on human A2A receptors and on human A2B receptors was below 0.1 µM throughout.

With `O=C(c1cc2c(cn1)c(-c1cnc3ccc(Cl)cn13)nn2CC(F)(F)F)N1CCCCCC1` [Compound 48, Azepan-1-yl-[3-(6-chloro-imidazo[1,2-a]pyridin-3-yl)-1-(2,2,2-trifluoro-ethyl)-1H-pyrazolo[4,3-c]pyridin-6-yl]-methanone], the results for the IC50 on human A2A receptors and on human A2B receptors were below 0.1 µM and below 1 µM, respectively.

Take `O=C(c1cc2c(cn1)c(-c1cnc3ncc(F)cn13)nn2CC(F)(F)F)N1CCCCCC1` [Compound 50, Azepan-1-yl-[3-(6-fluoro-imidazo[1,2-a]pyrimidin-3-yl)-1-(2,2,2-trifluoro-ethyl)-1H-pyrazolo[4,3-c]pyridin-6-yl]-methanone]: the IC50 on human A2A receptors was below 0.1 µM; at human A2B receptors, below 1 µM.

Take `O=C(c1cc2c(cn1)c(-c1ccc3ccccn13)nn2CC(F)(F)F)N1CCCCCC1` [Compound 52, Azepan-1-yl-[3-indolizin-3-yl-1-(2,2,2-trifluoro-ethyl)-1H-pyrazolo[4,3-c]pyridin-6-yl]-methanone]: the figures for the IC50 on human A2A receptors and on human A2B receptors were below 0.1 µM and below 1 µM, respectively.

For `O=C(c1cc2c(cn1)c(-c1cnc3ccccn13)nn2CC(F)(F)F)N1CCCCCC1` [Compound 55, Azepan-1-yl-[3-imidazo[1,2-a]pyridin-3-yl-1-(2,2,2-trifluoro-ethyl)-1H-pyrazolo[4,3-c]pyridin-6-yl]-methanone], the figures for the IC50 on human A2A receptors and at human A2B receptors were below 0.1 µM and below 1 µM, respectively.

For the compound `O=C(c1cc2c(cn1)c(-c1cnc3cnccn13)nn2CC(F)(F)F)N1CCCCCC1` [Compound 56, Azepan-1-yl-[3-imidazo[1,2-a]pyrazin-3-yl-1-(2,2,2-trifluoro-ethyl)-1H-pyrazolo[4,3-c]pyridin-6-yl]-methanone], the IC50 on human A2A receptors was below 0.1 µM; on human A2B receptors, below 1 µM.

Turning to `COc1ccc2ncc(-c3nn(CC(F)(F)F)c4cc(C(=O)N5CCCCCC5)ncc34)n2c1` [Compound 59, Azepan-1-yl-[3-(6-methoxy-imidazo[1,2-a]pyridin-3-yl)-1-(2,2,2-trifluoro-ethyl)-1H-pyrazolo[4,3-c]pyridin-6-yl]-methanone], the IC50 on human A2A receptors was below 0.1 µM; at human A2B receptors, below 1 µM.

As to `O=C(c1cc2c(cn1)c(-c1cnc3c(F)cc(F)cn13)nn2CC(F)(F)F)N1CCCCCC1` [Compound 60, Azepan-1-yl-[3-(6,8-difluoro-imidazo[1,2-a]pyridin-3-yl)-1-(2,2,2-trifluoro-ethyl)-1H-pyrazolo[4,3-c]pyridin-6-yl]-methanone], the IC50 on human A2A receptors and on human A2B receptors was below 0.1 µM in each case.

For `Cc1ccc2ncc(-c3nn(CC(F)(F)F)c4cc(C(=O)N5CCCCCC5)ncc34)n2c1` [Compound 61, Azepan-1-yl-[3-(6-methyl-imidazo[1,2-a]pyridin-3-yl)-1-(2,2,2-trifluoro-ethyl)-1H-pyrazolo[4,3-c]pyridin-6-yl]-methanone], the IC50 was below 0.1 µM at human A2A receptors and below 1 µM at human A2B receptors.

Turning to `O=C(c1cc2c(cn1)c(-c1cnc3c(F)cccn13)nn2CC(F)(F)F)N1CCCCCC1` [Compound 62, Azepan-1-yl-[3-(8-fluoro-imidazo[1,2-a]pyridin-3-yl)-1-(2,2,2-trifluoro-ethyl)-1H-pyrazolo[4,3-c]pyridin-6-yl]-methanone], the IC50 at human A2A receptors and at human A2B receptors was below 0.1 µM each time.

Take `O=C(c1cc2c(cn1)c(-c1cnc3ccc(O)cn13)nn2CC(F)(F)F)N1CCCCCC1` [Compound 68, Azepan-1-yl-[3-(6-hydroxy-imidazo[1,2-a]pyridin-3-yl)-1-(2,2,2-trifluoro-ethyl)-1H-pyrazolo[4,3-c]pyridin-6-yl]-methanone]: the IC50 on human A2A receptors is below 0.1 µM; at human A2B receptors, below 1 µM.

Take `O=C(c1cc2c(cn1)c(-c1nnc3ccccn13)nn2CC(F)(F)F)N1CCCCCC1` [Compound 71, Azepan-1-yl-[3-[1,2,4]triazolo[4,3-a]pyridin-3-yl-1-(2,2,2-trifluoro-ethyl)-1H-pyrazolo[4,3-c]pyridin-6-yl]-methanone]: the IC50 on human A2A receptors was below 0.1 µM; on human A2B receptors it was below 1 µM.

Consider `O=C(c1cc2c(cn1)c(-c1cnc3cc(Cl)c(F)cn13)nn2CC(F)(F)F)N1CCCCCC1` [Compound 73, Azepan-1-yl-[3-(7-chloro-6-fluoro-imidazo[1,2-a]pyridin-3-yl)-1-(2,2,2-trifluoro-ethyl)-1H-pyrazolo[4,3-c]pyridin-6-yl]-methanone], for which the IC50 on human A2A receptors and at human A2B receptors was below 0.1 µM each time.

As for `O=C(c1cc2c(cn1)c(-c1cnc3cc(F)c(Cl)cn13)nn2CC(F)(F)F)N1CCCCCC1` [Compound 74, Azepan-1-yl-[3-(6-chloro-7-fluoro-imidazo[1,2-a]pyridin-3-yl)-1-(2,2,2-trifluoro-ethyl)-1H-pyrazolo[4,3-c]pyridin-6-yl]-methanone], the figures for the IC50 at human A2A receptors and at human A2B receptors were below 0.1 µM and below 1 µM, respectively.

(Values after patent US20210380606A1, “5-AZAINDAZOLE DERIVATIVES AS ADENOSINE RECEPTOR ANTAGONISTS” (Merck Patent GmbH, priority 2018, published 2021).)
